The values that follow come from ChEMBL document CHEMBL1141723, “Specific targeting of metzincin family members with small-molecule inhibitors: progress toward a multifarious challenge” (Bioorg Med Chem, 2008).

Activity calls are given as the source filed them. The rule behind the calls is not given here.

In test [1] the target is Stromelysin-2 (Homo sapiens, UniProt P09238). As to the kind of experiment: Inhibition of MMP10 up to 100 uM.
Test [2] concerns the target T1, Interstitial collagenase (Homo sapiens) (UniProt P03956).
T1 sequence (whole entry): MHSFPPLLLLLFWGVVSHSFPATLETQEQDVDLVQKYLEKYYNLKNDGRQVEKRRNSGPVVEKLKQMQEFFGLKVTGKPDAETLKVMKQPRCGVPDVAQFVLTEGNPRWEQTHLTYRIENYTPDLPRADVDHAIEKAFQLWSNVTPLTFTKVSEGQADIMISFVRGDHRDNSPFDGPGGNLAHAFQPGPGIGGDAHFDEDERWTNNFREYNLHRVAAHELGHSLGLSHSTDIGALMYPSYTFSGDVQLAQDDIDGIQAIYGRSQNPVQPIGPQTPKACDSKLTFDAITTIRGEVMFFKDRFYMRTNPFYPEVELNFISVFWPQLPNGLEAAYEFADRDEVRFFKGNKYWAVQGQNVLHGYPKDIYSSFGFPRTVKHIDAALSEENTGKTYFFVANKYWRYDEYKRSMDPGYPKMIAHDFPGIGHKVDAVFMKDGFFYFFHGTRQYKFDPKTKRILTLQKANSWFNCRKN
The test can be described thus: Inhibition of MMP1 at 100 uM.

Test [3] deals with T2, 72 kDa type IV collagenase (Homo sapiens, UniProt P08253). The test can be described thus: Inhibition of MMP2 up to 100 uM.
Target sequence in this assay (P08253 110-660 limits assumed): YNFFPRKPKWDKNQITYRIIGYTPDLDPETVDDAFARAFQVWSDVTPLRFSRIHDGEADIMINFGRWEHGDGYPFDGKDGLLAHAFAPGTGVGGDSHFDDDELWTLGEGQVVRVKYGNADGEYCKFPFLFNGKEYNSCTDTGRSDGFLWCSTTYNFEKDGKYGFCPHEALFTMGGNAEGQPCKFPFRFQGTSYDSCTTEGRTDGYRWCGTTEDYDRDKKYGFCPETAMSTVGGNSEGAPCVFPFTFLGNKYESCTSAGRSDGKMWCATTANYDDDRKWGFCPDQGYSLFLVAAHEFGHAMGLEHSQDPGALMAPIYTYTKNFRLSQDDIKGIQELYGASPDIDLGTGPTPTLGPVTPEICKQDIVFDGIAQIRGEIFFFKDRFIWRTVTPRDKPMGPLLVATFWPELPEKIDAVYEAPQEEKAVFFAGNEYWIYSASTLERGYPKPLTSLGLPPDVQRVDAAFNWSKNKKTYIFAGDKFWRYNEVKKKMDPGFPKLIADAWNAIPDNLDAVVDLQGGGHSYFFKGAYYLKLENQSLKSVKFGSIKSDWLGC
The target in test [4] is Stromelysin-1 (Homo sapiens, UniProt P08254). The test can be described thus: Inhibition of MMP3 up to 100 uM.
For test [5], the target named is T3, Matrilysin (Homo sapiens) (UniProt P09237).
T3 sequence (whole entry): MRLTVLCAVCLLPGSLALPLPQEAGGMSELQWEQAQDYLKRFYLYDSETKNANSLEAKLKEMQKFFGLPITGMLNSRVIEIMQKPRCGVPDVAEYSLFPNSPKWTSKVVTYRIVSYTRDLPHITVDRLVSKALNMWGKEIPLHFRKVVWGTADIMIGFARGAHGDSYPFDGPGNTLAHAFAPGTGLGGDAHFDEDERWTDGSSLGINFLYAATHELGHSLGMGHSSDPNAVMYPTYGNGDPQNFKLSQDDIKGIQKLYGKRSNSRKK
As to the kind of experiment: Inhibition of MMP7 up to 100 uM.

In test [6] the target is T4, Neutrophil collagenase (Homo sapiens, UniProt P22894). The test can be described thus: Inhibition of MMP8 up to 100 uM.
Target sequence in this assay (P22894 101-467 limits assumed): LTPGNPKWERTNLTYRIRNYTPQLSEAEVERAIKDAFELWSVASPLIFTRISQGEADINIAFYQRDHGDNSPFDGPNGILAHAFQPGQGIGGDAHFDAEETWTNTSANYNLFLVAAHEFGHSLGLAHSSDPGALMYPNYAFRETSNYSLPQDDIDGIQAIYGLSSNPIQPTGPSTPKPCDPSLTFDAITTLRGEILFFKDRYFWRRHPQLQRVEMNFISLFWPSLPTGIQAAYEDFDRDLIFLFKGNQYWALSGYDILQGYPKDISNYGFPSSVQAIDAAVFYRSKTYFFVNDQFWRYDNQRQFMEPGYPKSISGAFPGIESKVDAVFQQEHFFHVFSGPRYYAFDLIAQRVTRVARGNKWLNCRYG
Test [7] addresses T5, Matrix metalloproteinase-9 (Homo sapiens, UniProt P14780). As to the kind of experiment: Inhibition of MMP9 up to 100 uM.
The target of test [8] is T6, Macrophage metalloelastase (Homo sapiens, UniProt P39900). The test can be described thus: Inhibition of MMP12 up to 100 uM.
Test [9] deals with T7, Matrix metalloproteinase-14 (Homo sapiens, UniProt P50281). As to the kind of experiment: Inhibition of MMP14 up to 100 uM.
Test [10] addresses Matrix metalloproteinase-16 (Homo sapiens, UniProt P51512). The test can be described thus: Inhibition of MMP16 up to 100 uM.
A short description of test [11]: Selectivity for MMP13 over MMP14.
Test [12] deals with T8, Collagenase 3 (Homo sapiens, UniProt P45452). As to the kind of experiment: Inhibition of MMP13.
Test [13] in a line: Selectivity for MMP13 over MMP1.
Test [14] is described as follows: Selectivity for MMP13 over MMP2.
Test [15] can be described thus: Selectivity for MMP13 over MMP3.
Test [16] can be described thus: Selectivity for MMP13 over MMP8.
Test [17] can be described thus: Selectivity for MMP13 over MMP9.
Test [18] in a line: Selectivity for MMP13 over MMP12.
In test [19] the target is T4, Neutrophil collagenase. The test can be described thus: Inhibition of MMP8.
Test [20] deals with T5, Matrix metalloproteinase-9. The test can be described thus: Inhibition of MMP9.
Test [21] has as its target T7, Matrix metalloproteinase-14. As to the kind of experiment: Inhibition of MMP14.
In test [22] the target is Stromelysin-3 (Homo sapiens, UniProt P24347). The test can be described thus: Inhibition of MMP11.
Test [23] addresses T2, 72 kDa type IV collagenase.
Target sequence in this assay (P08253 whole entry): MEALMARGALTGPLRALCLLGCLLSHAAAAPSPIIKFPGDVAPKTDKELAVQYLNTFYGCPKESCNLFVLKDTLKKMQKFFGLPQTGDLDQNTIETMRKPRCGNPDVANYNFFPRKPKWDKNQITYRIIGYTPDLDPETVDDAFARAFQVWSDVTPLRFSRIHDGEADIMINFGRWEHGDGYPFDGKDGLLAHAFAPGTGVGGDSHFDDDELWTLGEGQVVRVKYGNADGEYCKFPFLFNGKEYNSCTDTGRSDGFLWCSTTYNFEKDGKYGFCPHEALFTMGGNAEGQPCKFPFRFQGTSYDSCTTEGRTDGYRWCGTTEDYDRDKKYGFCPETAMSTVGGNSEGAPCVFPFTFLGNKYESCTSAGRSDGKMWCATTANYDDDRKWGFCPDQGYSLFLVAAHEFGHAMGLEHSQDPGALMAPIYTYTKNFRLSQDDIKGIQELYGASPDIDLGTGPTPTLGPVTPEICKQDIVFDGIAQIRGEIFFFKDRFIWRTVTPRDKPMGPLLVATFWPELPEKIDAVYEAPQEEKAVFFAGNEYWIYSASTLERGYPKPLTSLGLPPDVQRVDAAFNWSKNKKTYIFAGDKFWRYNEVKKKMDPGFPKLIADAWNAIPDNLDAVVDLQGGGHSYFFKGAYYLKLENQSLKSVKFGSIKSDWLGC
Test [24] addresses T9, Matrix metalloproteinase-17 (Homo sapiens) (UniProt Q9ULZ9).
T9 sequence (whole entry): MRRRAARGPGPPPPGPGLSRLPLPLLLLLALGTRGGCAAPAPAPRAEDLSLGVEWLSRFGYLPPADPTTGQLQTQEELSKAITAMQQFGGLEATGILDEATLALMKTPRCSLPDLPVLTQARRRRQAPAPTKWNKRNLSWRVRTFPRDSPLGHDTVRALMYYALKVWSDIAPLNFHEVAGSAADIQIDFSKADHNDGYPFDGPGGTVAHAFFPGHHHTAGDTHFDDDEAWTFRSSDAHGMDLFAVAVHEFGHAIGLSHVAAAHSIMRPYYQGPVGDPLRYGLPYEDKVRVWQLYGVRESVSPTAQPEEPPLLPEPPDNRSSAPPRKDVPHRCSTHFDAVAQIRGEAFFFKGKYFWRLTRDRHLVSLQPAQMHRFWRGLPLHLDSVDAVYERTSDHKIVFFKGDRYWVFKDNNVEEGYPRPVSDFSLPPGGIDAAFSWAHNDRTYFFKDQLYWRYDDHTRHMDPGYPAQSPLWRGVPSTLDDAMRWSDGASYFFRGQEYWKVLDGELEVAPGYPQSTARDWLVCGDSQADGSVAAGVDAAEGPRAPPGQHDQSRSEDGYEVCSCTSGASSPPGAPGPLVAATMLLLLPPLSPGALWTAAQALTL
As to the kind of experiment: Inhibition of MMP17.

Test [25] concerns the target T6, Macrophage metalloelastase. The test can be described thus: Inhibition of MMP12.
Test [26] addresses T1, Interstitial collagenase (Homo sapiens). The test can be described thus: Inhibition of MMP1.
The target of test [27] is T3, Matrilysin (Homo sapiens). As to the kind of experiment: Inhibition of MMP7.
Test [28] can be described thus: Inhibition of aggrecanase at 1 uM.
Test [29] concerns the target T1, Interstitial collagenase (Homo sapiens). The test can be described thus: Inhibition of MMP1 at 10 uM.
The target in test [30] is T5, Matrix metalloproteinase-9. The test can be described thus: Inhibition of MMP9 at 10 uM.
For test [31], the target named is T8, Collagenase 3. The test can be described thus: Inhibition of MMP13 at 10 uM.
Test [32] deals with T8, Collagenase 3. As to the kind of experiment: Inhibition of MMP13 at 10 ug/mL.

T5 sequence (P14780 whole entry): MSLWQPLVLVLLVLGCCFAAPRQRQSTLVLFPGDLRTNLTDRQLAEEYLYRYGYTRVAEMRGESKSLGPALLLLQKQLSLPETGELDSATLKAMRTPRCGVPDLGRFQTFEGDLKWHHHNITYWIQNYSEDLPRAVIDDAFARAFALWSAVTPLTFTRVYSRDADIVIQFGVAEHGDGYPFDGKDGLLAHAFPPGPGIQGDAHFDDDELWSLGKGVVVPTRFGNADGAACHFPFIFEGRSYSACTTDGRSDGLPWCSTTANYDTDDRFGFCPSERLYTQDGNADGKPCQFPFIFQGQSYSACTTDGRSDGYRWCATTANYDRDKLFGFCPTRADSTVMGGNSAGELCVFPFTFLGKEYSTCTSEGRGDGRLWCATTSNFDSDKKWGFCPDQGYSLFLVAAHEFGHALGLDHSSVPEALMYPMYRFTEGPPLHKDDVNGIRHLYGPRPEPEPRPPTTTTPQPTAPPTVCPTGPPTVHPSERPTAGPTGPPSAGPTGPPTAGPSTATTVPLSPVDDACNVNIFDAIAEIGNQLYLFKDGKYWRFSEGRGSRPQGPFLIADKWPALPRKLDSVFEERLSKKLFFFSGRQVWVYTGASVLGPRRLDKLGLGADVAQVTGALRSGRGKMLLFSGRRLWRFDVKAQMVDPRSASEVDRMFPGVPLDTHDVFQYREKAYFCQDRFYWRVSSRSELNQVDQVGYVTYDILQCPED
T6 sequence (P39900 106-470 limits assumed): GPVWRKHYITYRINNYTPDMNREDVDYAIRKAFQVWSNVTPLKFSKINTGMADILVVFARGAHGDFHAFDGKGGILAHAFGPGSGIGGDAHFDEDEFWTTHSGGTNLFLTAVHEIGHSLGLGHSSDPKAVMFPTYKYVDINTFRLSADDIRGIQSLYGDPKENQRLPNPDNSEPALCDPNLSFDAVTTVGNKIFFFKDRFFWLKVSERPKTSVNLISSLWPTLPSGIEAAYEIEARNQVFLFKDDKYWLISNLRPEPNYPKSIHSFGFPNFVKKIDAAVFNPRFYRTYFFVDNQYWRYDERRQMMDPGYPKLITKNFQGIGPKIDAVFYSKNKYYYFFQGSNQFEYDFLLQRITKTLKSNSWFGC
Chain of Matrix metalloproteinase-16 (P51512 whole entry): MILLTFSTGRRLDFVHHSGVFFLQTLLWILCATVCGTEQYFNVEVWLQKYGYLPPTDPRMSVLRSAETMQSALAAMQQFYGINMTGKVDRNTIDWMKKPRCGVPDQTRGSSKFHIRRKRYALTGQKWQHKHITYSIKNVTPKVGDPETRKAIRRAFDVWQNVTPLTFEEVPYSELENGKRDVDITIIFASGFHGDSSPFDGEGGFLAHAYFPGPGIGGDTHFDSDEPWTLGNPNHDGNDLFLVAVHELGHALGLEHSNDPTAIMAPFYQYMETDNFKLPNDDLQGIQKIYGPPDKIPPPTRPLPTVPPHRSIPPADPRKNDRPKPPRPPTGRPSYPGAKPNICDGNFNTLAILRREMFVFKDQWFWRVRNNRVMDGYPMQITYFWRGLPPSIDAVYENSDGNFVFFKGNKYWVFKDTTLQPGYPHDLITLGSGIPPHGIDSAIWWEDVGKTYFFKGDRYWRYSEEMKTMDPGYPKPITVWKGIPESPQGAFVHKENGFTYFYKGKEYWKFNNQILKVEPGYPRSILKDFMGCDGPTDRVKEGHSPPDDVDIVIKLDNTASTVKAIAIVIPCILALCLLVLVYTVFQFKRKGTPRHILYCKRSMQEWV
Chain of Stromelysin-3 (P24347 whole entry): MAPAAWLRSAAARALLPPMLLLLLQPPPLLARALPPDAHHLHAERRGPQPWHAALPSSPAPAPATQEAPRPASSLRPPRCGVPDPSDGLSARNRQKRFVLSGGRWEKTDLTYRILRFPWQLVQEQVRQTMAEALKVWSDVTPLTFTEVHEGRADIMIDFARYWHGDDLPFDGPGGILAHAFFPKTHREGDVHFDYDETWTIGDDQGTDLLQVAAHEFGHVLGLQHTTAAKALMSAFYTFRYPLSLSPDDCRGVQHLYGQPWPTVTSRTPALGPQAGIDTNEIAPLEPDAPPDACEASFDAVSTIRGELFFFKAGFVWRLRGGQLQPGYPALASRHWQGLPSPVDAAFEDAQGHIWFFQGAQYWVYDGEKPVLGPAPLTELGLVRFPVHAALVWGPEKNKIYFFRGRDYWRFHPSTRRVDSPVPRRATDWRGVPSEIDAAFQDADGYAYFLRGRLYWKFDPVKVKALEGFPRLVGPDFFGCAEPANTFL
Chain of Stromelysin-2 (P09238 99-476 limits assumed): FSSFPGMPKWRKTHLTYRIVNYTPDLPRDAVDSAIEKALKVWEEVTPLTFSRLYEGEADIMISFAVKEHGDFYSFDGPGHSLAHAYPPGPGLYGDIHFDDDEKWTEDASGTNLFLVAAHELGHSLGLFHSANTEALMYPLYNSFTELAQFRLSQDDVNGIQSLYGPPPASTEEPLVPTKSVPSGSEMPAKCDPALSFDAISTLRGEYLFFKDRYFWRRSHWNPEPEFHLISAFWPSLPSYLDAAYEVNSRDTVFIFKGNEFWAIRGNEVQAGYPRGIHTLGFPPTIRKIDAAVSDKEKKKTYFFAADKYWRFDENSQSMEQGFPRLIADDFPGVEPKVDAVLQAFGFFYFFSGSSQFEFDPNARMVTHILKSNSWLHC
Chain of Stromelysin-1 (P08254 100-477 limits assumed): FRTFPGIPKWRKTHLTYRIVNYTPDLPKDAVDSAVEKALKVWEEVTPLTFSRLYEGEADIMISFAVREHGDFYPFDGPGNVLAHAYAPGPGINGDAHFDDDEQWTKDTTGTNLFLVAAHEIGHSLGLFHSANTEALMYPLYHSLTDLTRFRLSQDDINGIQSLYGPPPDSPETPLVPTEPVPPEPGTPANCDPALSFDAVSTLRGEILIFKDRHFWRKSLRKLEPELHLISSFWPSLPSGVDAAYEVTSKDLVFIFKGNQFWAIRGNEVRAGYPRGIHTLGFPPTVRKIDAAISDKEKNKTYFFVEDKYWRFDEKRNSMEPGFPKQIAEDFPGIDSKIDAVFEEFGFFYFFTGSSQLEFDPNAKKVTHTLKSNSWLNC

For `O=C(NCc1cccnc1)c1cc(C(=O)NCc2cccnc2)ncn1`, the outcome in test [1], in test [2], in test [3], in [4], in [5] and in test [6] was inactive. The result in [7], in test [8], in [9] and in [10] was inactive.
As for `COCCC1(Oc2ccc(Oc3ccc(-c4nc(-c5ccc(C#N)cc5)co4)cc3)cc2)C(=O)NC(=O)NC1=O`, the fold change (FC) in test [11] stood at 540; in test [13], 2400; in test [14], 397; in [15], 17000; in test [16], 394; in test [17] it was 540. The compound further yielded a fold change (FC) in test [18] of 619. In addition, in test [12], it took 0.36 nM to reach half-maximal inhibition (IC50).
Turning to `COc1ccccc1SC[C@H](CP(=O)(O)[C@H](Cc1ccccc1)NC(=O)OCc1ccccc1)C(=O)N[C@@H](Cc1c[nH]c2ccccc12)C(N)=O`, the Ki – broadly, a measure of affinity in units of concentration, obtained from inhibition or displacement – in [19] amounted to 38.9 nM; in test [12], 15.7 nM; in test [20] it was 35.6 nM; in test [21] it was 160 nM; in test [22], 0.23 nM; in [23] it was 30 nM.
As to `COc1ccc(CNC(=O)c2cc3c(=O)n(Cc4ccc(C(=O)O)cc4)cnc3cn2)cc1`, the outcome in test [24], in [19], in test [20], in test [21], in test [25] and in [26] was inactive. The outcome in test [27] was inactive.
Take `Cc1cc(COc2ccc(C(=O)NCC3(N4CCN(S(C)(=O)=O)CC4)C(=O)NC(=O)NC3=O)cc2)c2ccccc2n1`: in test [28], the inhibition (as a rule, the relative decrease from the control value, in per cent) is 11%.
For the compound `CC#CCOc1ccc(S(=O)(=O)C2(C(=O)NO)CCN(c3ccc(Cl)cc3)CC2)cc1`, the inhibition was determined as 52% in test [29], 52% in test [30] and 56% in test [31].
Turning to `O=C(NCCCCN1CCOCC1)c1cc2ccccc2o1`, the result in test [32] was inactive.
